Data on one substance can be found in patent publication US20240352069A1, “SYNTHETIC PEPTIDE, AND COSMETIC COMPOSITION OR PHARMACEUTICAL COMPOSITION AND APPLICATION THEREOF” (SHENZHEN WINKEY TECHNOLOGY CO., LTD., priority 2021, published 2024).

The test system of one assay is NIH3T3 cells. Put plainly: UVB light damage repair experiment (MTT), NIH3T3. It counts as cell-based, mouse. Particulars: UVB irradiated, each dose of 12.5 ppm-100 ppm, 24 hours. As to the method: (§1) Human keratinocytes (HaCaT) were purchased from the Kunming Cell Bank of the Type Culture Collection Committee of the Chinese Academy of Sciences, and mouse skin fibroblasts (NIH3T3) were purchased from the Shanghai Cell Bank of the Type Culture Collection Committee of the Chinese Academy of Sciences.
(§2) Take cells in good exponential growth phase, add 0.25% trypsin digestion solution, digest to make adherent cells fall off, count 1×10^5-4×10^5 cells/mL, and make cell suspension.
(§3) Cells were seeded into 96-well plates at 10,000 cells/well, and the UVB photodamage model was established when the cells reached about 80% confluent. […]
(§4) After 24 hours, add 22 μL of 5 mg/mL MTT to each well, place in an incubator and incubate for 4 hours, discard the original solution, and add 150 μL/well of DMSO. After 5 minutes, use a microplate reader to read the reference OD values at 490 nm and 630 nm wavelengths.
(§5) By establishing a UVB light-damaged cell model, administering 24 hours after ultraviolet light irradiation, and using the MTT method to detect cell proliferation activity, the ability of the peptide of the present invention to repair light-damaged cells was evaluated.

Assay [1] deals with HaCaT cells. Put plainly: UVB light damage repair experiment (MTT), HaCaT. It counts as cell-based, human. Conditions: UVB irradiated, 12.5-100 ppm, 24 hours. As to the method: as §1, §2, §3, §4, §5
The test system of assay [2] is HaCaT cells. Put plainly: Scratch test (cell migration). The class given is cell-based, human. Conditions: 24 hours after scratch; peptides 100 ppm, EGF 50 U/mL; vs normal control group. As to the method: Human keratinocytes (HaCaT) were purchased from the Kunming Cell Bank of the Type Culture Collection Committee of the Chinese Academy of Sciences.
The cryopreserved HaCaT cells were cultured, subcultured to about 5 passages according to the ratio of 1:2, and the cells with better growth were selected as the experimental objects. Cells were seeded in a 12-well plate at a density of 200,000 cells/well, with 2 mL of cell suspension in each well. After the cells adhered to the wall, the medium was replaced with 0.5% to 1% fetal bovine serum to maintain the cells for 24 hours to synchronize them. change. Scratch with a sterilized pipette tip, wash off the dropped cells with PBS, add the sample to be tested, continue to incubate in a 37° C., 5% CO2 incubator, and place it under an optical microscope after 24 hours to analyze the wound healing area.
The cell scratch migration test can reflect the proliferation and repair ability of the cells.

For a further assay, the system named is IL-8. In words: Anti-inflammatory repair experiment, LPS-stimulated RAW264.7 cells, ELISA IL-8. The class given is cell-based, mouse. Particulars: 100 ppm, 200 ng/mL LPS, 48 h, vs LPS group. The text has this: Mouse mononuclear macrophages (RAW264.7 cells).
Peptide (2), tested at a concentration of 100 ppm.
• a) Take RAW264.7 cells in good exponential growth phase, add 0.25% trypsin digestion solution, digest to make adherent cells fall off, count 1-4×10^6 cells/mL, and make cell suspension; • b) Appropriately dilute 100,000 cells/well of cell suspension and inoculate it on a 6-well plate, and establish an LPS-stimulated inflammation model when the cells reached about 80% confluent. Set blank control group (control), LPS group, dexamethasone group (DXM), polypeptide group. Add 1000 μL culture medium to the blank control group; add 200 ng/mL LPS to the LPS group, add culture medium to 1000 μL; add 200 ng/mL LPS and 50 ng/mL dexamethasone to the dexamethasone group, add culture medium to 1000 μL; add 200 ng/mL LPS and peptide (2) to the polypeptide group, add culture medium to 1000 μL (final test concentration of peptide is 100 ppm). […] The OD value of each well was sequentially measured at 450 nm with a microplate reader within 15 min after the reaction was terminated. […]
Background: An ELISA detects its analyte on a solid surface through an enzyme-linked reagent.

In the case of “H-Ala-Pro-Phe-Arg-Met-Gly-Ile-Met-Thr-Thr-Asn-OH (H-APFRMGIMTTN-OH) [Peptide (2)]”, in the assay with NIH3T3 cells, the “activity of photodamaged NIH3T3 cells (MTT)” value is “can significantly increase NIH3T3 cell activity”. The “effect on improving activity of photodamaged HaCaT cells compared among peptides (1)-(5)” value in the assay with HaCaT cells [1] is on record as “better effect on improving cell activity”. Further, the “scratch spacing (proliferation and migration)” value in the assay with HaCaT cells [2] is reported as “shorter than that of the normal control group”. Further, in the assay with IL-8, the “expression of IL-8” value is “significantly down-regulated”.
